Here are results for 15 compounds from US20170107207A1, “AMINOPYRAZOLONE DERIVATIVE” (DAIICHI SANKYO COMPANY, LIMITED, priority 2014, published 2017).

Assay [1] concerns human lymphoma cell line RAMOS cells. In words: Cell growth inhibition test using RAMOS cell, ATP assay (CellTiter-Glo). Particulars: Homo sapiens, Ramos, 72 h, cultured 3 days, 50% growth inhibition concentration. It counts as cell-based. As to the method: A cell growth inhibition test was carried out by treating human lymphoma cell line RAMOS cells with a test compound for a given period and then counting the number of viable cells by MTT assay or CellTiter-Glo Luminescent Cell Viability Assay (manufactured by Promega Corp.; hereinafter, referred to as ATP assay).
RAMOS cells were inoculated at 4000 cells/40 μL/well to a 384-well plate containing the compound prepared in advance at predetermined concentrations. The cells thus inoculated were cultured at 37° C. for 3 days under 5% CO2. In order to measure a cell survival rate, CellTiter-Glo Reagent was added in an amount corresponding to 1/4 of the amount of the culture solution at the day of cell inoculation and at the final culture date and stirred at room temperature for 2 minutes. Then, luminescence intensity was measured using a plate reader. The cell survival rate was calculated according to the expression given below.
The number of viable cells and luminescence intensity have been confirmed to correlate with each other. Therefore, the rate of cell growth was calculated according to the following expression: Rate of cell growth (T/C %) of a test compound-supplemented well=100×[(B−C)/(A−C)] wherein A represents the luminescence intensity (final culture date) of a test compound-free well; B represents the luminescence intensity (final culture date) of a test compound-containing well; and C represents the luminescence intensity (day of cell inoculation) of a well at the start of contact of the cells with the test compound.
T/C % at each concentration of the test compound was determined. The concentration at which the test compound offered 50% growth rate was calculated as a GI50 value from the growth rates at two points interpolating 50% and the concentrations, and is shown in Table 56.
(Cellular ATP, detected with luciferase, serves as a proxy for viable cell number.)

The target of the next assay is T1, TIP48/TIP49 complex (Homo sapiens, UniProt Q9Y230+Q9Y265).
T1 construct: made in house; host or cells: E. coli
T1 sequence (Q9Y230 whole entry): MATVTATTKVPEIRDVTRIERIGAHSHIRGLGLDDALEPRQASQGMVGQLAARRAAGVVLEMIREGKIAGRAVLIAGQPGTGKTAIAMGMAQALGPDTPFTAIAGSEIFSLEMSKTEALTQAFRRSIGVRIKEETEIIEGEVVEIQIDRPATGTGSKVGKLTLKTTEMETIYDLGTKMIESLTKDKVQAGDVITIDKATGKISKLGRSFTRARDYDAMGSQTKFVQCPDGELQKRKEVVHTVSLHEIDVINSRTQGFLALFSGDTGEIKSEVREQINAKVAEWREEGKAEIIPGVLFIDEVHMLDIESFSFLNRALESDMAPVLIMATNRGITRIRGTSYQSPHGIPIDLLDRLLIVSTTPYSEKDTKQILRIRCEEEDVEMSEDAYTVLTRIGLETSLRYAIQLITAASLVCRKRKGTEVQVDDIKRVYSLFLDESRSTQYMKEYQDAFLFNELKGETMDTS
T1 sequence (Q9Y265 whole entry): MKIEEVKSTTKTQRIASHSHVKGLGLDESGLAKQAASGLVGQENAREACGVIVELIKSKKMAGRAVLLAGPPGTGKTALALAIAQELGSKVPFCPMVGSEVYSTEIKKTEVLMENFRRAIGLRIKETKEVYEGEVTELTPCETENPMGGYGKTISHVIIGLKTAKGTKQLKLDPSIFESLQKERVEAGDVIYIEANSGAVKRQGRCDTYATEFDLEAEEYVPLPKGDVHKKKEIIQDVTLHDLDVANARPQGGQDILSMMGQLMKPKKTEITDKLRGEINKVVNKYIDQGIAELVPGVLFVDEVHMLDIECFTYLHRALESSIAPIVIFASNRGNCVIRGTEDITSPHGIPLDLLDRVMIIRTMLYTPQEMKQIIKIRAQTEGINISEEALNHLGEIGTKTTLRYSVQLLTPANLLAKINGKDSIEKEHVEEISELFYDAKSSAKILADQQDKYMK
Briefly: ATPase assay of TIP48/TIP49 complex (ADP-Glo). It counts as biochemical. To be noted: concentration at which the ATPase activity was inhibited by 50%. An excerpt:
The ATPase activity of the TIP48/TIP49 complex can be measured by use of an ATPase assay described below in Test Examples 1 and 2. The ATPase activity of the TIP48/TIP49 complex can be measured, as described below in the Test Examples, for example, by using recombinant human TIP48 and TIP49 proteins (hereinafter, referred to as rTIP48 and rTIP49) and ATP in the presence or absence of a test compound and measuring the amount of ADP formed through hydrolysis by the ATPase activity of the TIP48/TIP49 complex, using ADP-Glo. Alternatively, the ATPase activity of the TIP48/TIP49 complex can be measured by a method described in, for example, J. Mol. Biol. 366, 172-179 (2007).
An ATPase assay of a TIP48/TIP49 complex was conducted using rTIP48 and rTIP49. Human TIP48 and TIP49 DNAs were purchased from Open Biosystems. Human TIP48 and TIP49 cDNAs cloned by PCR using the purchased DNAs were each integrated into plasmids for expression in E. coli and expressed in E. coli to obtain rTIP48 and rTIP49.
A test compound was dissolved at 10 mM using DMSO. The solution was diluted to 10 concentrations as 4-fold serial dilutions from 10 mM using DMSO.
A 2×assay buffer (100 mM Tris-HCl, pH 7.5, 100 mM NaCl, 40 mM MgCl2, 2 mM DTT, 20 μM ATP, and 0.2 mg/mL BSA) was dispensed at 24.5 μL/well to a 384-well assay plate.
Test compound solutions were dispensed thereto at 1 μL/well. Subsequently, the solution in each well was mixed using a plate mixer.
rTIP48 and rTIP49 were diluted to a concentration of 50 μg/mL using sterilized water. The diluted solution was dispensed at 24.5 μL/well to the 384-well assay plate. Subsequently, the solution in each well was mixed using a plate mixer (final concentration: 24.5 μg/mL) (concentration of each test compound solution: 200 μM, 50 μM, 12.5 μM, 3.12 μM, 0.78 μM, 0.20 μM, 0.049 μM, 0.012 μM, 0.003 μM, and 0.0007 μM; DMSO concentration: 2%).
After the mixing using the plate mixer, the assay plate was left standing at room temperature for 1.5 hours.
5 μL of the solution in each well was transferred to a white assay plate, and ADP-Glo Reagent from ADP-Glo Kinase Assay (Promega Corp., catalog No. V9101) was dispensed thereto at 5 μL/well. After completion of the reaction, the plate was left standing at room temperature for 40 minutes. Kinase Detection Reagent was further dispensed thereto at 5 μL/well, and the plate was left standing at room temperature for 30 minutes. Then, luminescence intensity was measured using a plate reader.
The ATPase inhibitory activity was calculated according to the expression given below.
The luminescence intensity of a well supplemented with the test compound and the TIP48/TIP49 complex was defined as A. The luminescence intensity of a well supplemented with only the TIP48/TIP49 complex was defined as B. The luminescence intensity of a well supplemented with neither the test compound nor the TIP48/TIP49 complex was defined as C. The ratio between the test compound-supplemented group and the test compound-nonsupplemented group (T/C value) was determined according to the following calculation expression:
The dose-response curve was calculated using GraphPad Prism 4 from the concentration of each of the serially diluted test compounds and the ATPase inhibitory activity (%) at this concentration.
On the technique in general: ADP-Glo turns the ADP formed in a reaction into a luminescent signal.

Usually GI50 stands for the concentration at which growth is held to half of that of the control. In general, IC50 refers to the concentration needed to halve the response being measured. In turn, `CCOc1ccc(Cl)cc1NC(=O)CC1(CC(=O)Nc2c(CCN(C)C)n(C)n(-c3ccccc3)c2=O)CCCC1` [Example 32, N-(5-chloro-2-ethoxyphenyl)-2-{1-[2-({5-[2-(dimethylamino)ethyl]-1-methyl-3-oxo-2-phenyl-2,3-dihydro-1H-pyrazol-4-yl}amino)-2-oxoethyl]cyclopentyl}acetamide] showed a GI50 in assay [1] of 1300 nM. For the same compound, at TIP48/TIP49 complex, the IC50 was determined as 130 nM.
With `CCOc1cc(F)c(Cl)cc1C(=O)NCC(C)(C)CC(=O)Nc1c(CCNC)n(C)n(-c2ccccc2)c1=O` [Example 34, 5-Chloro-N-[2,2-dimethyl-4-({1-methyl-5-[2-(methylamino)ethyl]-3-oxo-2-phenyl-2,3-dihydro-1H-pyrazol-4-yl}amino)-4-oxobutyl]-2-ethoxy-4-fluorobenzamide], in assay [1], the GI50 is 470 nM. Moreover, 56 nM corresponded to half-maximal inhibition against TIP48/TIP49 complex (IC50).
Consider `CCOc1ccc(Cl)cc1C(=O)NCC(C)(C)CC(=O)Nc1c(CCN(C)CCF)n(C)n(-c2ccccc2)c1=O` [Example 36, 5-Chloro-2-ethoxy-N-{4-[(5-{2-[2-fluoroethyl(methyl)amino]ethyl}-1-methyl-3-oxo-2-phenyl-2,3-dihydro-1H-pyrazol-4-yl)amino]-2,2-dimethyl-4-oxobutyl}benzamide], for which halving of growth in assay [1] (GI50) required 120 nM. Also, the half-inhibitory concentration (IC50) against TIP48/TIP49 complex worked out at 24 nM.
In the same order, the values of `CCOc1cc(F)c(Cl)cc1C(=O)NCC(C)(C)CC(=O)Nc1c(CCN(C)CCF)n(C)n(-c2ccccc2)c1=O` [Example 37, 5-Chloro-2-ethoxy-4-fluoro-N-{4-[(5-{2-[2-fluoroethyl(methyl)amino]ethyl}-1-methyl-3-oxo-2-phenyl-2,3-dihydro-1H-pyrazol-4-yl)amino]-2,2-dimethyl-4-oxobutyl}benzamide] are 120 nM and 38 nM.
As to `CCOc1cc(F)c(Cl)cc1C(=O)NCC(C)(C)CC(=O)Nc1c(CCN(C)CC(F)(F)F)n(C)n(-c2ccccc2)c1=O` [Example 38, 5-Chloro-N-{2,2-dimethyl-4-[(1-methyl-5-{2-[methyl(2,2,2-trifluoroethyl)amino]ethyl}-3-oxo-2-phenyl-2,3-dihydro-1H-pyrazol-4-yl)amino]-4-oxobutyl}-2-ethoxy-4-fluorobenzamide], the GI50 in assay [1] was 210 nM. At TIP48/TIP49 complex, this compound gave an IC50 of 77 nM.
The corresponding values for `CCOc1cc(F)c(Cl)cc1C(=O)NCC(C)(C)CC(=O)Nc1c(CCN(C)C)n(CC)n(-c2ccccc2)c1=O` [Example 41, 5-Chloro-N-[4-({5-[2-(dimethylamino)ethyl]-1-ethyl-3-oxo-2-phenyl-2,3-dihydro-1H-pyrazol-4-yl}amino)-2,2-dimethyl-4-oxobutyl]-2-ethoxy-4-fluorobenzamide] are 98 nM and 20 nM.
Turning to `CCOc1ncc(Cl)cc1C(=O)NCC(C)(C)CC(=O)Nc1c(CCN(C)C)n(CC)n(-c2ccccc2)c1=O` [Example 42, 5-Chloro-N-[4-({5-[2-(dimethylamino)ethyl]-1-ethyl-3-oxo-2-phenyl-2,3-dihydro-1H-pyrazol-4-yl}amino)-2,2-dimethyl-4-oxobutyl]-2-ethoxypyridine-3-carboxamide], growth in assay [1] was halved (GI50) at 150 nM. For the same compound, on TIP48/TIP49 complex, the half-inhibitory concentration (IC50) came out at 80 nM.
In the same order, the values of `[2H]C([2H])([2H])n1c(CCN(C)C)c(NC(=O)CC(C)(C)CNC(=O)c2cc(Cl)ccc2OCC)c(=O)n1-c1ccccc1` [Example 43, 5-Chloro-N-[4-({3-[2-(dimethylamino)ethyl]-5-oxo-1-phenyl-2-(trideuteriomethyl)pyrazol-4-yl}amino)-2,2-dimethyl-4-oxobutyl]-2-ethoxybenzamide] are 190 nM and 60 nM.
The corresponding values for `[2H]C([2H])([2H])n1c(CCN(C)C)c(NC(=O)CC(C)(C)CNC(=O)c2cc(Br)cnc2OCC)c(=O)n1-c1ccccc1` [Example 44, 5-Bromo-N-[4-({3-[2-(dimethylamino)ethyl]-5-oxo-1-phenyl-2-(trideuteriomethyl)-2,3-dihydro-1H-pyrazol-4-yl}amino)-2,2-dimethyl-4-oxobutyl]-2-ethoxypyridine-3-carboxamide] are 470 nM and 150 nM.
In assay [1], `CCOc1ccc(Cl)cc1C(=O)NCC(C)(C)CC(=O)Nc1c(CCN(C)C)n(C)n(-c2ccccc2F)c1=O` [Example 45, 5-Chloro-N-[4-({3-[2-(dimethylamino)ethyl]-1-(2-fluorophenyl)-2-methyl-5-oxopyrazol-4-yl}amino)-2,2-dimethyl-4-oxobutyl]-2-ethoxybenzamide] gave a GI50 of 480 nM. For the same compound, the midpoint of inhibition against TIP48/TIP49 complex, the IC50, lay at 77 nM.
In the same order, the values of `Cc1cc2cc(Cl)cc(C(=O)NCC(C)(C)CC(=O)Nc3c(CCN(C)C)n(C)n(-c4ccccc4F)c3=O)c2o1` [Example 46, 5-Chloro-N-[4-({3-[2-(dimethylamino)ethyl]-1-(2-fluorophenyl)-2-methyl-5-oxo-1,5-dihydro-1H-pyrazol-4-yl}amino)-2,2-dimethyl-4-oxobutyl]-2-methylbenzofuran-7-carboxamide] are 470 nM and 81 nM.
In the same order, the values of `CCOc1ccc(Cl)cc1C(=O)NCC(C)(C)CC(=O)Nc1c(CCN(C)C)n(C)n(-c2cccc(Cl)n2)c1=O` [Example 47, 5-Chloro-N-(4-{[1-(6-chloro-2-pyridyl)-3-(2-dimethylamino)ethyl]-2-methyl-5-oxopyrazol-4-yl}amino-2,2-dimethyl-4-oxobutyl)-2-ethoxybenzamide] are 250 nM and 37 nM.
In assay [1], `CCOc1ccc(Cl)cc1C(=O)NCC(C)(C)CC(=O)Nc1c(C[C@@H](C)N(C)C)n(C)n(-c2ccccc2)c1=O` [Example 48, 5-Chloro-N-[4-({5-[(2R)-2-(dimethylamino)propyl]-1-methyl-3-oxo-2-phenyl-2,3-dihydro-1H-pyrazol-4-yl}amino)-2,2-dimethyl-4-oxobutyl]-2-ethoxybenzamide] returned a GI50 of 160 nM. On TIP48/TIP49 complex, this compound registered an IC50 of 61 nM.
In assay [1], `CCOc1cc(F)c(Cl)cc1C(=O)NCC(C)(C)CC(=O)Nc1c(C[C@@H](C)N(C)C)n(C)n(-c2ccccc2)c1=O` [Example 49, 5-Chloro-N-[4-({5-[(2R)-2-(dimethylamino)propyl]-1-methyl-3-oxo-2-phenyl-2,3-dihydro-1H-pyrazol-4-yl}amino)-2,2-dimethyl-4-oxobutyl]-2-ethoxy-4-fluorobenzamide] came in with a GI50 of 160 nM. On TIP48/TIP49 complex, this compound registered an IC50 of 69 nM.
The compound `Cc1cc2cc(Cl)cc(C(=O)NCC(C)(C)CC(=O)Nc3c(C[C@@H](C)N(C)C)n(C)n(-c4ccccc4)c3=O)c2o1` [Example 50, 5-Chloro-N-[4-({5-[(2R)-2-(dimethylamino)propyl]-1-methyl-3-oxo-2-phenyl-2,3-dihydro-1H-pyrazol-4-yl}amino)-2,2-dimethyl-4-oxobutyl]-2-methylbenzofuran-7-carboxamide] returned a GI50 in assay [1] of 210 nM. The compound also yielded an IC50 on TIP48/TIP49 complex of 50 nM.
